Experimental data published in the C3SDB collision cross section collection.
“And” between values parts separate entries of the source, which are not always exact repeats. Equal values may be shown once. Each block holds one compound with its values, some of them ahead of it.

How the values were obtained:
[1] = instrument: TW, calibrated with phosphatidylcholines (ESI+) and phosphatidylethanolamines (ESI-)
[2] = instrument: TW, calibrated with polyalanine
[3] = instrument: DT, stepped-field
[4] = instrument: TW, calibrated with phosphatidylcholines (ESI+) and phosphatidylethanolamines (ESI-); remark: listed apart in the source
[5] = instrument: DT, single field
[6] = instrument: DT, single field, calibrated with Agilent tune mix (Agilent)

collision cross section (N2) ([1]; [M-H]-): 255.2 Å²
SMILES: CCCCCCCCCCCCCCCC(=O)O[C@H](COC(=O)CCCCCCCCCCCC)COP(=O)(O)OC[C@@H](O)CO [PG(29:0)]

collision cross section (N2) ([2]; [M+H]+): 167 Å²
SMILES: CSC[C@H]1O[C@@H](n2cnc3c(N)ncnc32)[C@H](O)[C@@H]1O [Methylthioadenosine]

collision cross section (N2) ([2]; [M+Na]+): 132 Å²
SMILES: O=P(O)(O)OC[C@H](O)CO [Glycerol monophosphate]

collision cross section (N2) ([1]; [M+NH4]+): 281.2 Å² | collision cross section (N2) ([1]; [M+Na]+): 278.6 Å²
SMILES: CC/C=C\C/C=C\C/C=C\CCCCCCCC(=O)OC[C@H](CO[C@@H]1O[C@H](CO)[C@H](O)C(O)C1O)OC(=O)CCCCC/C=C\CCCCCCCC (stereo partly specified) [MGDG(16:1/18:3)]

collision cross section (N2) ([2]; [M+H]+): 121 Å²
SMILES: NCCC[C@H](N)C(=O)O [Ornithine]

collision cross section (N2) ([2]; [M+H]+): 145 Å²
SMILES: CC(C)(CO)[C@@H](O)C(=O)NCCC(=O)O [Pantothenic acid]

collision cross section (N2) ([2]; [M+H]+): 165 Å²
SMILES: N[C@@H](CCC(=O)N[C@@H](CS)C(=O)NCC(=O)O)C(=O)O [glutathione]

collision cross section (N2) ([1]; [M+NH4]+): 326.8 Å²
SMILES: CCCCCCCCCCCCCCCCCC(=O)OC[C@H](CO[C@@H]1O[C@H](CO[C@H]2O[C@H](CO)[C@H](O)C(O)C2O)[C@H](O)C(O)C1O)OC(=O)CCCCCCCCCCCCCCCCC (stereo partly specified) [DGDG(36:0)]

collision cross section (N2) ([2]; [M+Na]+): 173 Å²
SMILES: OC[C@H]1O[C@@H](O[C@H]2[C@H](O)[C@@H](O)[C@H](O)O[C@@H]2CO)[C@H](O)[C@@H](O)[C@H]1O [lactose]

collision cross section (N2) ([1]; [M-H]-): 251.4 Å²
SMILES: CCCCCCCCCCCCCCCCCCC(=O)OC[C@H](COP(=O)(O)O)OC(=O)CCCCCCCCCCCC [PA(16:0/16:0)]

collision cross section (N2) ([3]; [M-H]-): 280.1 Å² | collision cross section (N2) ([1]; [M-H]-): 273.2 Å² | collision cross section (N2) ([6]; [M-H]-): 272.7 Å²
SMILES: CCCC/C=C\CCCCCCCC(=O)OC[C@H](COP(=O)(O)OC[C@@H](O)CO)OC(=O)CCCCCCCCCCCCCCCCCCCC [PG(35:1)]

collision cross section (N2) ([2]; [M+H]+): 130 Å²
SMILES: Cc1ncc(CO)c(C(=O)O)c1O [Pyridoxic acid]

collision cross section (N2) ([4]; [M+Na]+): 269.8 Å² | collision cross section (N2) ([4]; [M-H]-): 261 Å² | collision cross section (N2) ([1]; [M-H]-): 261.4 Å²
SMILES: CCCC/C=C\CCCCCCCC(=O)OC[C@H](COP(=O)(O)OC[C@@H](O)CO)OC(=O)CCCCCCC/C=C\CCCCCCCC [PG(32:2)]

collision cross section (N2) ([1]; [M-H]-): 264.8 Å²
SMILES: CCCCC/C=C\C/C=C\C/C=C\CCCCC(=O)O[C@H](CO/C=C\CCCCCCCCCCCCCC)COP(=O)(O)OC[C@@H](O)CO [PG(p34:3)]

collision cross section (N2) ([1]; [M+H]+): 305.4 Å²
SMILES: CCCCCCCCCCCCCCCCCCCC(=O)OC(COC(=O)CCCCCCCCCCCCCC)COP(=O)([O-])OCC(O)COC(=O)C(N)CCCC[NH3+] (stereo unspecified) [LysPG(35:0)]

collision cross section (N2) ([3]; [M+H]+): 301.1 Å² | collision cross section (N2) ([4]; [M+H]+): 285.8 Å² | collision cross section (N2) ([5]; [M+H]+): 289.07 Å² and 290.41 Å² | collision cross section (N2) ([5]; [M+Na]+): 288.39 Å² | collision cross section (N2) ([6]; [M+H]+): 289.7 Å²
SMILES: CCCCCCCCCCCCCCCCCCCCC(=O)O[C@H](COC(=O)CCCCCCCCCCCC)COP(=O)([O-])OCC[N+](C)(C)C [PC(34:0)]

collision cross section (N2) ([3]; [M-H]-): 282.9 Å² and 284.1 Å² | collision cross section (N2) ([4]; [M+Na]+): 287.5 Å² | collision cross section (N2) ([4]; [M-H]-): 275.7 Å² | collision cross section (N2) ([1]; [M-H]-): 275.7 Å² | collision cross section (N2) ([6]; [M+H]+): 292 Å² | collision cross section (N2) ([6]; [M+NH4]+): 292.5 Å² | collision cross section (N2) ([6]; [M+Na]+): 287.5 Å²
SMILES: CCCCCC/C=C\CCCCCCCC(=O)OC[C@H](COP(=O)(O)OC[C@@H](O)CO)OC(=O)CCCCCCCCCCCCCCCCCCC [PG(36:1)]

collision cross section (N2) ([2]; [M+H]+): 131 Å²
SMILES: Nc1ccc(C(=O)O)cc1 [PABA]

collision cross section (N2) ([2]; [M+H]+): 142 Å²
SMILES: CN=C(NC)NCCC[C@H](N)C(=O)O [SDMA]

collision cross section (N2) ([3]; [M-H]-): 265.6 Å² | collision cross section (N2) ([1]; [M-H]-): 258.7 Å²
SMILES: CCCCCCCCCCCCCCCCCC(=O)OC[C@H](COP(=O)(O)OC[C@@H](O)CO)OC(=O)CCCCCCCCCCC [PG(30:0)]

collision cross section (N2) ([2]; [M+Na]+): 173 Å²
SMILES: OC[C@H]1O[C@H](O[C@H]2O[C@H](CO)[C@@H](O)[C@H](O)[C@H]2O)[C@H](O)[C@@H](O)[C@@H]1O [trehalose]

collision cross section (N2) ([1]; [M-H]-): 258.5 Å²
SMILES: CCCCC/C=C\CCCCCCCC(=O)O[C@H](CO/C=C\CCCCCCCCCCCCCC)COP(=O)(O)OC[C@@H](O)CO [PG(p31:1)]

collision cross section (N2) ([2]; [M+H]+): 130 Å²
SMILES: C[N+](C)(C)C[C@H](O)CC(=O)[O-] [Carnitine]

collision cross section (N2) ([1]; [M-H]-): 264.1 Å²
SMILES: CCCCCCCCCCCCCCCCCCC(=O)O[C@H](COC(=O)CCCCCCCCCCCCCCCC)COP(=O)(O)O [PA(36:0)]

collision cross section (N2) ([2]; [M+H]+): 122 Å²
SMILES: N[C@@H](CC(=O)O)C(=O)O [Aspartic acid]

collision cross section (N2) ([3]; [M-H]-): 273.7 Å² | collision cross section (N2) ([1]; [M-H]-): 267 Å² | collision cross section (N2) ([6]; [M-H]-): 266.4 Å²
SMILES: CCCCCCCC/C=C\CCCCCCCCCC(=O)O[C@H](COC(=O)CCCCCCCCCCCC)COP(=O)(O)OC[C@@H](O)CO [PG(33:1)]

collision cross section (N2) ([1]; M+NH4]+): 317.4 Å²
SMILES: CCCCCCCCCCCCC=CCC=CCC(=O)OC[C@H](CO[C@@H]1O[C@H](CO[C@H]2O[C@H](CO)[C@H](O)C(O)C2O)[C@H](O)C(O)C1O)OC(=O)CC=CCCCCCCCCCCCCCC (stereo partly specified) [DGDG(35:1)]

Further lines, the compound ahead of its results:

SMILES: Nc1ncnc2c1ncn2[C@@H]1O[C@H](COP(=O)(O)O)[C@@H](O)[C@H]1O [AMP]
collision cross section (N2) ([2]; [M+H]+): 167 Å²

SMILES: CCCCCCCCCCCC=CCC(=O)OC[C@H](CO[C@@H]1O[C@H](CO[C@H]2O[C@H](CO)[C@H](O)C(O)C2O)[C@H](O)C(O)C1O)OC(=O)CC=CCCCCCCCCCCC (stereo partly specified) [DGDG(30:2)]
collision cross section (N2) ([1]; [M+NH4]+): 295.4 Å² | collision cross section (N2) ([1]; [M+Na]+): 291.7 Å²

SMILES: CCCCCCCCCCCCCCCC(=O)OC[C@H](CO[C@@H]1O[C@H](CO[C@H]2O[C@H](CO)[C@H](O)C(O)C2O)[C@H](O)C(O)C1O)OC(=O)CCCCCCCCCCCCCCC (stereo partly specified) [DGDG(32:0)]
collision cross section (N2) ([1]; [M+NH4]+): 308.5 Å² | collision cross section (N2) ([1]; [M+Na]+): 306.7 Å²

SMILES: CCCCCCC/C=C\CCCCCCCC(=O)O[C@H](CO/C=C\CCCCCCCCCCCCCC)COP(=O)(O)OC[C@@H](O)CO [PG(p33:1)]
collision cross section (N2) ([1]; [M-H]-): 265.1 Å²

SMILES: CCCCCCCCCCCCCCC(=O)OCC(COP(=O)([O-])OCC(O)COC(=O)C(N)CCCC[NH3+])OC(=O)CCCCCCCCCCCCC (stereo unspecified) [LysPG(29:0)]
collision cross section (N2) ([1]; [M+H]+): 287.8 Å²

SMILES: O=C[C@H](O)[C@H](O)[C@H](O)COP(=O)(O)O [Ribose 5-monophosphate]
collision cross section (N2) ([2]; [M+Na]+): 146 Å²

SMILES: CCCCCC/C=C\CCCCCCCCCC(=O)OC[C@H](COP(=O)([O-])OCC[N+](C)(C)C)OC(=O)CCCCCCCCCCCCCCC [PC(34:1)]
collision cross section (N2) ([3]; [M+H]+): 300.3 Å² | collision cross section (N2) ([4]; [M+CH3COO]-): 289.1 Å² | collision cross section (N2) ([4]; [M+H]+): 285.3 Å² | collision cross section (N2) ([5]; [M+H]+): 285.62 Å² and 287.54 Å² | collision cross section (N2) ([6]; [M+H]+): 287.1 Å²

SMILES: OC[C@H]1O[C@H](OC[C@H]2O[C@H](O[C@]3(CO)O[C@H](CO)[C@@H](O)[C@@H]3O)[C@H](O)[C@@H](O)[C@@H]2O)[C@H](O)[C@@H](O)[C@H]1O [raffinose]
collision cross section (N2) ([2]; [M+Na]+): 210 Å²

SMILES: CCCCCCCCCCCCCCCCCCCCC(=O)O[C@H](COC(=O)CCCCCCCCCCCCC)COP(=O)(O)OC[C@@H](O)CO [PG(35:0)]
collision cross section (N2) ([1]; [M-H]-): 275 Å²

SMILES: CCCCCCCCCCCCCCCCCCC(=O)O[C@H](COC(=O)CCCCCCCCCCC)COP(=O)(O)OC[C@@H](O)CO [PG(31:0)]
collision cross section (N2) ([1]; [M-H]-): 262 Å²

SMILES: O=c1ccn([C@@H]2O[C@H](COP(=O)(O)O)[C@@H](O)[C@H]2O)c(=O)[nH]1 [UMP]
collision cross section (N2) ([2]; [M+Na]+): 168 Å²

SMILES: Nc1ncnc2c1ncn2[C@@H]1O[C@@H]2COP(=O)(O)O[C@H]2[C@H]1O [cAMP]
collision cross section (N2) ([2]; [M+H]+): 172 Å²

SMILES: CCCCCCCCCCCCCCCCC(=O)OC[C@H](COP(=O)(O)O)OC(=O)CCCCCCCCCCCC [PA(30:0)]
collision cross section (N2) ([1]; [M-H]-): 244.9 Å²

SMILES: CCCCCC/C=C\CCCCCCCCCC(=O)OCC(COP(=O)([O-])OCC(O)COC(=O)C(N)CCCC[NH3+])OC(=O)CCCCCCC/C=C\CCCCCC (stereo unspecified) [LysPG(34:2)]
collision cross section (N2) ([1]; [M+H]+): 298.4 Å²

SMILES: N[C@@H](Cc1c[nH]c2ccccc12)C(=O)O [Tryptophan]
collision cross section (N2) ([2]; [M+H]+): 145 Å²

SMILES: CCCC/C=C\CCCCCCCC(=O)OC[C@H](COP(=O)(O)OC[C@@H](O)CO)OC(=O)CCCCCCC/C=C\CCCCCC [PG(30:2)]
collision cross section (N2) ([1]; [M-H]-): 255 Å²

SMILES: CCCCCCCCCCCCCCCCCCC(=O)OC[C@H](COP(=O)(O)O)OC(=O)CCCCCCCCCCCC [PA(32:0)]
collision cross section (N2) ([1]; [M-H]-): 251.1 Å²

SMILES: CC/C=C\C/C=C\C/C=C\CCCCCCCC(=O)OC[C@H](CO[C@@H]1O[C@H](CO)[C@H](O)C(O)C1O)OC(=O)CCCCCCC/C=C\C/C=C\C/C=C\CC (stereo partly specified) [MGDG(18:3/18:3)]
collision cross section (N2) ([1]; [M+CH3COO]-): 286.3 Å² | collision cross section (N2) ([1]; [M+Cl]-): 278.5 Å² | collision cross section (N2) ([1]; [M+K]+): 282.5 Å² | collision cross section (N2) ([1]; [M+NH4]+): 284.1 Å² | collision cross section (N2) ([1]; [M+Na]+): 281 Å² | collision cross section (N2) ([1]; [M-H]-): 276.2 Å²

SMILES: CCCCC/C=C\C/C=C\CCCCCCCC(=O)O[C@H](COC(=O)CCCCCCCCCCCC)COP(=O)(O)OC[C@@H](O)CO [PG(31:2)]
collision cross section (N2) ([1]; [M-H]-): 257.9 Å²

SMILES: NCCCC[C@H](N)C(=O)O [Lysine]
collision cross section (N2) ([2]; [M+H]+): 127 Å²
